The results in this text go back to ChEMBL document CHEMBL2440117, “Improved inhibitory activities against tumor-cell migration and invasion by 15-benzylidene substitution derivatives of andrographolide” (Bioorg Med Chem Lett, 2013).

Assay [1] deals with SGC-7901. Put plainly: Downregulation of MMP-9 mRNA expression in human SGC7901 cells at 10 uM after 48 hrs by semi-quantitative RT-PCR analysis. Format: functional, cell-based.
The test system of assay [2] is SGC-7901. Put plainly: Effect on MMP-2 mRNA expression in human SGC7901 cells at 10 uM after 48 hrs by semi-quantitative RT-PCR analysis. Format: functional, cell-based.
Assay [3] deals with SGC-7901. Briefly: Downregulation of MMP-7 mRNA expression in human SGC7901 cells after 48 hrs by semi-quantitative RT-PCR analysis. Format: functional, cell-based.
Assay [4] deals with SGC-7901. Put plainly: Antiinvasive activity against human SGC7901 cells at 5 to 10 uM after 24 hrs by matrigel invasion assay relative to control. Format: functional, cell-based.
The subject of assay [5] is SGC-7901. Put plainly: Antiinvasive activity against human SGC7901 cells at 10 uM after 24 hrs by matrigel invasion assay relative to control. Format: functional. To be noted: SGC-7901, 24 h.
The test system of assay [6] is HT-29. Put plainly: Cytotoxicity against human HT-29 cells assessed as growth inhibition at 10 uM after 48 hrs by MTT assay. Format: functional, cell-based.
The subject of assay [7] is HT-29. Briefly: Antimigratory activity against human HT-29 cells at 10 uM after 12 to 48 hrs by wound-healing assay relative to control. Format: functional.
Assay [8] concerns ECa-109. Briefly: Cytotoxicity against human EC109 cells assessed as growth inhibition at 10 uM after 48 hrs by MTT assay. In kind it is functional, cell-based.
Assay [9] has as its system ECa-109. Briefly: (§1) Antimigratory activity against human EC109 cells at 10 uM after 12 to 48 hrs by wound-healing assay relative to control. Format: functional.
The subject of assay [10] is A549. Briefly: Cytotoxicity against human A549 cells assessed as growth inhibition at 10 uM after 48 hrs by MTT assay. Format: functional, cell-based.
Assay [11] concerns A549. Briefly: Antimigratory activity against human A549 cells at 5 uM after 12 to 48 hrs by wound-healing assay relative to control. Format: functional.
Assay [12] relates to PC-3. Briefly: Cytotoxicity against human PC3 cells assessed as growth inhibition at 10 uM after 48 hrs by MTT assay relative to control. In kind it is functional. The conditions noted are these: for inhibition of growth at 10 µM: PC-3, 48 h, read-out: GI.
Assay [13] deals with PC-3. Briefly: Antimigratory activity against human PC3 cells at 10 uM after 12 to 48 hrs by wound-healing assay relative to control. In kind it is functional.
In assay [14] the test system is SGC-7901. Briefly: Cytotoxicity against human SGC7901 cells assessed as growth inhibition at 10 uM after 48 hrs by MTT assay relative to control. Format: functional, cell-based.
The subject of assay [15] is SGC-7901. Briefly: Antimigratory activity against human SGC7901 cells at 10 uM after 12 to 48 hrs by wound-healing assay relative to control. In kind it is functional.
Assay [16] deals with 5637. Put plainly: Cytotoxicity against human 5637 cells assessed as growth inhibition at 5 uM after 48 hrs by MTT assay relative to control. Format: functional. The conditions noted are these: Homo sapiens, 5637, 48 h; read-out: GI.
For assay [17], the system named is 5637. Put plainly: Antimigratory activity against human 5637 cells at 5 uM after 12 to 48 hrs by wound-healing assay relative to control. Format: functional.
In assay [18] the test system is 5637. Briefly: Antimigratory activity against human 5637 cells at 2.5 uM after 12 to 48 hrs by wound-healing assay. In kind it is functional, cell-based.
The subject of assay [19] is SGC-7901. Briefly: Antimigratory activity against human SGC7901 cells after 12 to 48 hrs by wound-healing assay. In kind it is functional, cell-based.
Assay [20] can be described thus: as §1. In kind it is functional. To be noted: ECa-109.
The test system of assay [21] is A549. Put plainly: Antimigratory activity against human A549 cells at 10 uM after 12 to 48 hrs by wound-healing assay relative to control. Format: functional.
Assay [22] has as its system A549. Briefly: Antimigratory activity against human A549 cells after 12 to 48 hrs by wound-healing assay. Format: functional, cell-based.
Assay [23] relates to 5637. Briefly: Cytotoxicity against human 5637 cells assessed as growth inhibition at 10 uM after 48 hrs by MTT assay relative to control. Format: functional, cell-based.
Assay [24] concerns 5637. Briefly: Antimigratory activity against human 5637 cells at 10 uM after 12 to 48 hrs by wound-healing assay relative to control. In kind it is functional.
Assay [25] has as its system SGC-7901. Put plainly: Downregulation of MMP-2 protein expression in human SGC7901 cells at 10 uM after 72 hrs by microscopic analysis. Format: functional, cell-based.
The subject of assay [26] is SGC-7901. Put plainly: Downregulation of MMP-9 protein expression in human SGC7901 cells at 2.5 to 10 uM after 72 hrs by microscopic analysis. In kind it is functional, cell-based.
For assay [27], the system named is SGC-7901. Briefly: Downregulation of MMP-7 protein expression in human SGC7901 cells at 2.5 to 10 uM after 72 hrs by microscopic analysis. Format: functional, cell-based.
For assay [28], the system named is SGC-7901. Put plainly: Downregulation of MMP-7 mRNA expression in human SGC7901 cells at 1.25 to 10 uM after 48 hrs by semi-quantitative RT-PCR analysis. Format: functional, cell-based.
Assay [29] deals with SGC-7901. Briefly: Downregulation of MMP-9 mRNA expression in human SGC7901 cells at 1.25 to 2.5 uM after 48 hrs by semi-quantitative RT-PCR analysis. Format: functional, cell-based.
The test system of assay [30] is SGC-7901. Briefly: Downregulation of MMP-2 mRNA expression in human SGC7901 cells at 1.25 uM after 48 hrs by semi-quantitative RT-PCR analysis. Format: functional, cell-based.
The subject of assay [31] is SGC-7901. Briefly: Antiinvasive activity against human SGC7901 cells after 24 hrs by matrigel invasion assay. Format: functional, cell-based. To be noted: SGC-7901, 24 h.

Active and inactive are the calls of the source. The calls are words filed in the database; no cut-off is given here.

On to `C=C1CC[C@@H]2[C@](C)(CO)[C@H](O)CC[C@@]2(C)[C@@H]1C/C=C1/C(=O)OC[C@H]1O` [ANDROGRAPHOLIDE], for which the outcome in assay [1] was Active. In addition, the result in [2] was inactive. For the same compound, the Activity result in [3] was “Dose-dependent effect”. The inhibition result in assay [4] is “Active”. Further, the inhibition at 10 µM was found to be 17.7% in assay [5] and 20.8% in [15]. In addition, the “growth inhibition (GI)” value in assay [6], in [8], in assay [10], in assay [12] and in [14] was “inactive” in each case. Further, the inhibition result in assay [7], in assay [9], in [13] and in assay [18] was “inactive” in each case. Besides, the inhibition at 5 µM in [11] amounted to 28.6%; in assay [17], 34.5%. Also, in [16], the inhibition of growth at 5 µM was 44%.
Regarding `C=C1CC[C@@H]2[C@](C)(CO)[C@H](O)CC[C@@]2(C)[C@@H]1/C=C/C1=CC(=C/c2ccc(Br)cc2)/OC1=O`, the inhibition of growth at 10 µM in assay [12] came to 40.2%. In addition, testing at 10 µM in assay [13] gave an inhibition of 83.8%. Also, half-maximal inhibition in [19] (IC50) was put at 8.6 µM. Also, the “growth inhibition (GI)” value in [14] was “inactive”. Also, the inhibition of growth at 5 µM in assay [16] was determined as 33.6%. In assay [17], this compound showed an inhibition at 5 µM of 27.9%.
With `C=C1CC[C@@H]2[C@](C)(CO)[C@H](O)CC[C@@]2(C)[C@@H]1/C=C/C1=CC(=C/c2ccc(OC)cc2)/OC1=O`, the “growth inhibition (GI)” value in assay [6], in assay [8], in assay [10], in assay [12] and in assay [14] was “inactive” throughout. Also, the inhibition at 10 µM in [7] came out at 38.7%; in assay [20], 41.3%; in assay [21], 35.1%; in assay [13], 34%; in [15], 48.5%. Besides, the inhibition of growth at 5 µM in assay [16] was found to be 33.7%. Moreover, in assay [17], the inhibition at 5 µM turned out to be 17.9%.
`C=C1CC[C@@H]2[C@](C)(CO)[C@H](O)CC[C@@]2(C)[C@@H]1/C=C/C1=CC(=C/c2ccc(F)cc2)/OC1=O`: the “growth inhibition (GI)” value in [6], in [8], in [10], in assay [12] and in assay [14] was “inactive” each time. For the same compound, the results for the inhibition at 10 µM in assay [7], in [20] and in assay [13] were 39.5%, 34.2% and 34.3%, respectively. Also, the IC50 in [22] came to 7.2 µM; in assay [19], 8 µM. For the same compound, in [16], the inhibition of growth at 5 µM turned out to be 32.5%. Also, the inhibition at 5 µM in assay [17] came to 19.5%.
For the compound `C=C1CC[C@@H]2[C@](C)(COC(=O)CCC(=O)O)[C@H](OC(=O)CCC(=O)O)CC[C@@]2(C)[C@@H]1/C=C/C1=CC(=C/c2ccc(Cl)cc2)/OC1=O`, the “growth inhibition (GI)” value in [12], in assay [14] and in [23] was “inactive” each time. Further, the inhibition entry in assay [13], in assay [15] and in [24] was “inactive” in each case.
For `C=C1CC[C@@H]2[C@](C)(COC(=O)CCC(=O)O)[C@H](OC(=O)CCC(=O)O)CC[C@@]2(C)[C@@H]1/C=C/C1=CCOC1=O`, the “growth inhibition (GI)” value in assay [12], in assay [14] and in assay [23] was “inactive” each time. The inhibition result in assay [13], in [15] and in assay [24] was “inactive” throughout.
Take `C[C@@]12COCO[C@@H]1CC[C@]1(C)[C@@H]2CC[C@@]2(CO2)[C@H]1C/C=C1/C(=O)OC[C@H]1O`: the “growth inhibition (GI)” value in assay [12] and in assay [14] was “inactive” each time. The inhibition entry in [13] and in assay [15] was “inactive” in each case. Moreover, the inhibition of growth at 5 µM in [16] stood at 32.9%. The compound also displayed an inhibition at 5 µM in assay [17] of 18.4%.
Take `C=C1CC[C@@H]2[C@](C)(CO)[C@H](O)CC[C@@]2(C)[C@@H]1/C=C/C1=CCOC1=O`: the “growth inhibition (GI)” value in assay [12], in assay [14] and in assay [23] was “inactive” in each case. For the same compound, the inhibition entry in assay [13] and in assay [15] was “inactive” each time. Also, in [24], the inhibition at 10 µM turned out to be 44.7%.
Consider `C=C1CC[C@@H]2[C@]3(C)COCO[C@@H]3CC[C@@]2(C)[C@@H]1C/C=C1/C(=O)OC[C@H]1O`, for which the “growth inhibition (GI)” value in [12] and in [14] was “inactive” each time. The inhibition result in assay [13] and in [15] was “inactive” throughout. The inhibition of growth at 5 µM in [16] was found to be 25.3%. Besides, the inhibition at 5 µM in assay [17] is 36.3%.
On to `C=C1CC[C@@H]2[C@](C)(CO)[C@H](O)CC[C@@]2(C)[C@@H]1/C=C/C1=CC(=C/c2ccc(Cl)cc2)/OC1=O`, for which the outcome in [25], in [26], in assay [27], in assay [28], in assay [29] and in assay [30] was Active. The values for the IC50 in [31] and in assay [19] were 4.6 µM and 4.3 µM, respectively. In addition, the “growth inhibition (GI)” value in [6], in assay [8], in [10] and in assay [14] was “inactive” throughout. The inhibition at 10 µM in assay [7] amounted to 48.1%; in [20], 40.7%; in assay [21] it was 41.4%; in assay [13], 58.5%. For the same compound, the inhibition of growth at 10 µM in [12] came out at 11.3%. Moreover, in assay [16], the inhibition of growth at 5 µM amounted to 25.3%. This compound also gave an inhibition at 5 µM in assay [17] of 16.4%.
With `C=C1CC[C@@H]2[C@](C)(COC(=O)c3cccnc3)[C@H](OC(=O)c3cccnc3)CC[C@@]2(C)[C@@H]1/C=C/C1=CCOC1=O`, the “growth inhibition (GI)” value in [12], in assay [14] and in [23] was “inactive” each time. For the same compound, the inhibition entry in [13] and in assay [15] was “inactive” in each case. In addition, the inhibition at 10 µM in assay [24] is 31.7%.
As for `C[C@]1(CO)[C@H]2CC[C@@]3(CO3)[C@@H](/C=C/C3=CCOC3=O)[C@]2(C)CC[C@H]1O`, the “growth inhibition (GI)” value in [12], in [14] and in [23] was “inactive” throughout. The inhibition entry in [13] and in assay [15] was “inactive” each time. The inhibition at 10 µM in [24] turned out to be 22.5%.
